The values below come from US20050150764A1 (priority 2001, published 2005).

Structures are written as SMILES.

One series can be described thus: logP (pH 2). Particulars: for logP (pH 2): intermediates of formula (VIIa), Table 6.
The test system of series [1] is caterpillars of the cabbage moth (Plutella xylostella). As to the kind of experiment: Plutella test (Example C). The series is classed as in vivo. Particulars: 500 ppm, after 6 days, cabbage leaves dipped. The procedure: (§1) Plutella test [table] To produce a suitable preparation of active compound, 1 part by weight of active compound is mixed with the stated amounts of solvent and emulsifier, and the concentrate is diluted with emulsifier-containing water to the desired concentration. Cabbage leaves (Brassica oleracea) are treated by being dipped into the preparation of active compound at the desired concentration and are populated with caterpillars of the cabbage moth (Plutella xylostella) while the leaves are still moist. After the desired period of time, the kill in % is determined. 100% means that all of the caterpillars have been killed: 0% denotes that no caterpillars have been killed.

The subject of series [2] is Heliothis virescens caterpillars. As to the kind of experiment: Heliothis virescens test (Example A). The format is in vivo. Particulars: 500 ppm, after 6 days, soya shoots dipped. The procedure: Heliothis virescens Test [table] To produce a suitable preparation of active compound, 1 part by weight of active compound is mixed with the stated amounts of solvent and emulsifier, and the concentrate is diluted with emulsifier-containing water to the desired concentration. Soya shoots (Glycine max) are treated by being dipped into the preparation of active compound at the desired concentration and are populated with Heliothis virescens caterpillars while the leaves are still moist. After the desired period of time, the kill in % is determined. 100% means that all of the caterpillars have been killed: 0% denotes that no caterpillars have been killed.

Series [3] has as its system caterpillars of the army worm (Spodoptera exigua). As to the kind of experiment: Spodoptera exigua test (Example D). The format is in vivo. Particulars: 500 ppm, after 6 days, cabbage leaves dipped. Here is the method:
as §1, with “Spodoptera exigua Test” for “Plutella test”, “army worm (Spodoptera exigua)” for “cabbage moth (Plutella xylostella)”

In another series the test system is Lucilia cuprina larvae. As to the kind of experiment: Blowfly larvae test/development inhibition activity (Example I). The series is classed as in vivo. Particulars: 100% = no flies hatched. The procedure:
Blowfly Larvae Test/Development Inhibition Activity
(§2) 20 mg of active substance are dissolved in 1 ml of dimethyl sulphoxide; lower concentrations are prepared by dilution with distilled water.
About 20 Lucilia cuprina larvae are introduced into a test tube containing 1 cm^3 of horse meat and 0.5 ml of the test preparation of active compound. The efficacy of the active compound preparation is determined after 24 and 48 hours. The test tubes are transferred to beakers whose bases are covered with sand. After 2 more days, the test tubes are removed and the pupae are counted.
The activity of the active compound preparation is assessed in accordance with the number of flies which have hatched following 1.5 times the development period of an untreated control. 100% means that no flies have hatched; 0% means that all of the flies hatched normally.

Series [4] deals with larvae of the mustard beetle (Phaedon cochleariae). As to the kind of experiment: Phaedon larvae test (Example B). The series is classed as in vivo. Particulars: 1000 ppm, after 7 days, cabbage leaves dipped. Here is the method:
as §1, with “Phaedon larvae Test [table]” for “Plutella test [table]”, “with larvae” for “with caterpillars”, “the mustard beetle (Phaedon cochleariae)” for “the cabbage moth (Plutella xylostella)”, “the beetle larvae” for “the caterpillars”, “no beetle larvae” for “no caterpillars”

The subject of series [5] is caterpillars of the army worm (Spodoptera frugiperda). As to the kind of experiment: Spodoptera frugiperda test (Example E). The format is in vivo. Particulars: 1000 ppm, after 7 days, cabbage leaves dipped. The procedure:
as §1, with “Spodoptera frugiperda Test” for “Plutella test”, “army worm (Spodoptera frugiperda)” for “cabbage moth (Plutella xylostella)”

Test in series [6]: not given
The source holds these as a separate data set.

The subject of series [7] is adult Musca domestica, strain: Reichswald (OP, SP, carbamate resistant). As to the kind of experiment: Test with flies (Musca domestica) (Example H). The format is in vivo. Here is the method: Test with Flies (Musca domestica)
as §2
[…] After the filter disks have dried, 25 test organisms are transferred to the Petri dishes and covered.
The activity of the active compound preparation is determined after 1, 3, 5, 24 and 48 hours. 100% means that all the flies were killed; 0% means that none of the flies was killed.

The subject of series [8] is Heliothis virescens caterpillars. As to the kind of experiment: Activity duration test: Heliothis virescens (Example F). The series is classed as in vivo. Particulars: 20 ppm, cotton plants sprayed. Here is the method: Activity Duration Test: Heliothis virescens [table] To produce a suitable preparation of active compound, 1 part by weight of active compound is mixed with the stated amounts of solvent and emulsifier, and the concentrate is diluted with emulsifier-containing water to the desired concentration. Cotton plants (Gossypium hirsutum) are sprayed with a preparation of the active compound in the desired concentration. After the number of days indicated, Heliothis virescens caterpillars are placed onto the treated leaves in infection chambers. After the desired period of time, the kill in % is determined. 100% means that all of the caterpillars have been killed: 0% denotes that no caterpillars have been killed.

In series [9] the test system is caterpillars of the army worm (Spodoptera frugiperda). As to the kind of experiment: Activity duration test: Spodoptera frugiperda (Example G). The series is classed as in vivo. Particulars: 20 ppm, cotton plants sprayed. The procedure: Activity Duration Test: Spodoptera frugiperda [table] To produce a suitable preparation of active compound, 1 part by weight of active compound is mixed with the stated amounts of solvent and emulsifier, and the concentrate is diluted with emulsifier-containing water to the desired concentration. Cotton plants (Gossypium hirsutum) are sprayed with a preparation of the active compound in the desired concentration. After the number of days indicated, caterpillars of the army worm (Spodoptera frugiperda) are placed onto the treated leaves in infection chambers. After the desired period of time, the kill in % is determined. 100% means that all of the caterpillars have been killed: 0% denotes that no caterpillars have been killed.

Where [10] appears, read: Concentration 4 μg fly, reading time not given.
Where [11] appears, read: Concentration 20 μg fly, reading time not given.
Where [12] appears, read: Concentration 100 μg fly, reading time not stated (1, 3, 5, 24 and 48 hours in method).

As a reminder, the logP is a log measure of how a compound divides between an organic and an aqueous phase. What is called melting point is the temperature, or range, at which the solid turns liquid.

`N#Cc1cccc(C(=O)C2CCOC2=O)c1` (stereo not shown): the logP in the series “logP (pH 2)” is 1.48.

`N#Cc1cccc(C2=NN(C(=O)Nc3ccc(OC(F)(F)F)cc3)CCC2n2cc(Cl)cn2)c1` (stereo not shown) [Example 1, 3-(3-cyanophenyl)-4-(4-chloropyrazol-1-yl)-1-(4-trifluoromethoxyphenylamino)carbonyl-1,4,5,6-tetrahydropyridazine]: the melting point worked out at 216 °C. Besides, in the series “logP (pH 2)”, the logP is 4.08. For the same compound, the kill in series [1] stood at 100%. The same compound came in with a kill in [2] of 100%. Also, the kill in [3] is recorded as 100%.

Turning to `O=C(Nc1ccc(OC(F)(F)F)cc1)N1CCC(n2cc(Cl)cn2)C(c2cccc(Cl)c2)=N1` (stereo not shown) [Example 7], the “% Activity/Kill” value in the series with Lucilia cuprina larvae (Concentration 4 ppm) came to 0%; in the series on Lucilia cuprina larvae (Concentration 20 ppm), 100%; with Lucilia cuprina larvae (Concentration 100 ppm), 100%; in series [7] (setting [10]), 0%; in series [7] (setting [11]), 50%; in series [7] (setting [12]) it was 99%. Besides, the kill in series [4] and in [5] was 100% throughout. Further, the “logP (pH 2)/ m.p. [° C.] (logP part)” value in series [6] is on record as 4.73/181.

For the compound `O=C(Nc1ccc(C(F)(F)F)cc1)N1CCC(n2cc(Cl)cn2)C(c2cccc(Cl)c2)=N1` (stereo not shown) [Example 9], the “% Activity/Kill” value with Lucilia cuprina larvae (Concentration 20 ppm) came to 0%; with Lucilia cuprina larvae (Concentration 100 ppm), 100%; in series [7] (setting [10]), 0%; in series [7] (setting [11]) it was 85%; in series [7] (setting [12]), 95%. Moreover, the kill in [4] and in [5] was 100% each time. Also, the “logP (pH 2)/ m.p. [° C.] (logP part)” value in series [6] was 4.69/199.

`O=C(Nc1ccc(C(F)(F)F)cc1)N1CCC(n2cc(Cl)cn2)C(c2cccc(Br)c2)=N1` (stereo not shown) [Example 13]: the kill in series [1], in series [2] and in series [3] was 100% each time. In series [6], the “logP (pH 2)/ m.p. [° C.] (logP part)” value is listed as 4.77/196.

With `O=C(Nc1ccc(C(F)(F)F)cc1)N1CCC(n2cc(Cl)cn2)C(c2cccc(C(F)(F)F)c2)=N1` (stereo not shown) [Example 14], the kill in series [1], in series [8] (infection after 5 days), in [8] (infection after 12 days), in series [8] (infection after 19 days), in [8] (infection after 26 days) and in series [2] was 100% throughout. In series [3], this compound yielded a kill of 100%. For the same compound, the “Degree of kill in %” value was found to be 90% in series [9] (infection after 5 days), 80% in [9] (infection after 12 days), 70% in [9] (infection after 19 days) and 90% in [9] (infection after 26 days). For the same compound, the “logP (pH 2)/ m.p. [° C.] (logP part)” value in [6] is 4.79/176.

For `O=C(Nc1ccc(SC(F)(F)F)cc1)N1CCC(n2cc(Cl)cn2)C(c2cccc(F)c2)=N1` (stereo not shown) [Example 15], the kill in series [1], in series [2] and in series [3] was 100% each time. The “Degree of kill in %” value is given as 90% in series [9] (infection after 5 days), 90% in [9] (infection after 12 days), 80% in series [9] (infection after 19 days) and 90% in series [9] (infection after 26 days). The “logP (pH 2)/ m.p. [° C.] (logP part)” value in [6] is listed as 4.81/166.

Take `N#Cc1cccc(C2=NN(C(=O)Nc3ccc(SC(F)(F)F)cc3)CCC2n2cc(Cl)cn2)c1` (stereo not shown) [Example 17]: the kill in [1], in series [2] and in series [3] was 100% throughout. The “logP (pH 2)/ m.p. [° C.] (logP part)” value in series [6] was 4.44/182.

In “logP (pH 2)”, `N#Cc1cccc(C(=O)C(Br)CCCl)c1` (stereo not shown) [Example V-1, 3′-cyano-2-bromo-4-chlorobutyrophenone] yielded a logP of 3.09.

`N#Cc1cccc(C2=NNCCC2n2cc(Cl)cn2)c1` (stereo not shown) [II-1, 3-(3-cyanophenyl)-4-(4-chloropyrazol-1-yl)-1,4,5,6-tetrahydropyridazine]: the melting point was 171 °C. This compound also had a logP in “logP (pH 2)” of 2.29.

As to `N#Cc1cccc(C(=O)C(CCCl)n2cc(Cl)cn2)c1` (stereo not shown) [IV-1, 3′-cyano-2-(4-chloropyrazol-1-yl)-4-chlorobutyrophenone], the logP in the series “logP (pH 2)” stood at 2.95.

As to `N#Cc1cccc(C(=O)CCCCl)c1` [VI-1, 3′-cyano-4-chlorobutyrophenone], the logP in “logP (pH 2)” came to 2.49.

On to `O=C1OCCC1C(=O)c1cccc(C(F)(F)F)c1` (stereo not shown) [VIIa-2], for which the “logP (pH 2)” value in the series “logP (pH 2)” stood at 2.42.

On to `O=C1OCCC1C(=O)c1cccc(F)c1` (stereo not shown) [VIIa-3], for which the “logP (pH 2)” value in “logP (pH 2)” is reported as 1.77.
